Experiments:
AMPKα = assay: Measurement of AMPK activation effect (AMPKα Thr172 phosphorylation immunoassay) in MCF7 cells; assay type: cell-based, human; conditions: 24 hours; for AMPK activation effect at 10 μM (%) / AMPK activation effect at 50 μM (%): relative to untreated cells; for AMPK activation effect AC150: concentration at which AMPK activation reached 150%
How it was run: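 MCF7 cells in DMEM/10% FBS were treated 24 h with derivatives at 5, 10 and 50 μM (metformin hydrochloride control, 0.05–10 mM). AMPKα Thr172 phosphorylation was measured by immunoassay on 20 μg lysate. AC150 (concentration giving 150% activation) came from concentration–response curves, with activation also reported at fixed concentrations.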

Snail = assay: EMT inhibitory effect by inhibition of Snail expression (immunoblotting) in MCF7 cells; assay type: cell-based, human; conditions: MCF7, 48 hours, untreated control = 100%
Procedure: Cells undergoing EMT owing to various cytokines and growth factors can acquire motility and thus move a distance to form tumors in new tissues. Therefore, the metastasis of cancer cells can be inhibited by controlling expression of EMT-related transcription factors to hinder EMT. Based on these facts, the activities of biguanide derivatives that inhibit Snail expression, which is a transcription factor inducing EMT in the MCF7 cell line derived from human breast cancer, were measured and simple experimental methods are described, as follows.
MCF7 cells derived from human breast cancer (commercially available from Korean Cell Line Bank) were cultured in a DMEM medium supplemented with 10% (v/v) fetal bovine serum (commercially available from Gibco Life Technologies (US)), put into a 6-well plate so that the number of cultured cells could amount to approximately 5×10^5 cells per well, and then incubated in an incubator supplied with 5% CO2 (culture temperature: 37° C., pH: 7.0 to 7.4). The culture media were treated with phenformin hydrochloride and the compounds synthesized in the examples at contents of 1 μM and 10 μM, respectively, and then incubated for 48 hours. Metformin hydrochloride was used as the control, and the cells were treated with 1 mM and 10 mM metformin hydrochloride. After 48 hours, the cells were lysed in a cell lysis buffer containing 10 mM Tris HCl (pH7.4), 100 mM NaCl, 1 mM EDTA, 1 mM EGTA, 1 mM NaF, 20 mM Na4P2O7, 2 mM Na3VO4, 1% TritonX-100, 10% glycerol, 0.5% deoxycholate and 1 mM PMSF. Then, 25 μg of the cell lysate was electrophoresized in an SDS-PAGE gel, and then transferred to a […] membrane (commercially available from Amersham Life Science). The membrane reacted with rat monoclonal anti-human Snail (commercially available from Cell signaling Technology) or mouse monoclonal anti-β-actin (commercially available from Santa cruz Biotechnology), and unbound antibodies were removed. In this case, anti-β-actin was used as the antibody to ensure that the amount of proteins loaded into the SDS-PAGE gel is identical. The membrane was reacted again with a secondary antibody, anti-rat IgG (commercially available from Cell signaling Technology) or anti-mouse IgG (commercially available from Santa Cruz Biotechnology). Finally, the antibody bound to the membrane was detected using an ECL Plus system (commercially available from Amersham Life Science). Also, the expression level of Snail with respect to β-actin was analyzed using a Scion image analysis program. Here, when it was assumed that the expression level of the untreated control was 100%, the expression level of the Snail by treatment with the compounds synthesized in the examples was indicated as a percentage (%).

[1] = Solubility in water of hydrochloride and acetate salts; assay type: physicochemical; conditions: content 5 mg/1 ml distilled water, room temperature
Procedure: The solubilities in water of the hydrochlorides prepared in Examples 26, 27, 32, 33, 48, 49, 53 and 54, and the solubilities in water of the acetates prepared in Examples 70 to 77, were compared.
The experimental conditions and methods are described, as follows.
1) 1 ml of distilled water is added to a container including 5 mg of salt at room temperature.
2) The resulting mixture is stirred for 10 minutes, and then kept at room temperature for 1 hour.
3) Undissolved residual salt is recovered and weighed.
4) The ratio of the amount of the recovered salt and the amount of the dissolved salt is calculated.
5) Operations 1) to 4) are repeatedly performed with increasing amount (i.e., 10, 15, 20, 25 and 30 mg) of salt.
The experimental procedures were performed for each of the hydrochlorides of Examples 26, 27, 32, 33, 48, 49, 53 and 54 and the acetates of Examples 70 to 77. The comparative solubilities obtained using the hydrochlorides of Examples 26, 27, 32, 33, 48, 49, 53 and 54 and the acetates of Examples 70 to 77 are listed in the following Table 1.

melting point	Solubility in water (%), hydrochloride salt [1]	Compound	AMPK activation effect at 10 μM (%) (AMPKα)	AMPK activation effect at 50 μM (%) (AMPKα)	AMPK activation effect AC150 (AMPKα)	Snail Expression Rate (%) (Snail; 1 μM)	Snail Expression Rate (%) (Snail; 10 μM)
172 to 174 °C	–	Cl.N=C(NC(=N)N1CCCCC1)Nc1cccc(Cl)c1 [Example 20, N1-piperidine-N5-(3-chloro)phenyl biguanide hydrochloride]	236%	558%	3.2 µM	57.6%	8.7%
213 to 215 °C	–	Cl.N=C(NC(=N)N1CCCCCC1)Nc1cccc(Cl)c1 [Example 21, N1-azepane-N5-(3-chloro)phenyl biguanide hydrochloride]	211%	653%	4.8 µM	83.5%	29.8%
283 to 284 °C	80%	Cl.N=C(NC(=N)N1CCCC1)Nc1ccc(C(F)(F)F)cc1 [Example 26, N1-pyrrolidine-N5-(4-trifluoromethyl)phenyl biguanide hydrochloride]	255%	642%	3.1 µM	57.2%	14.6%
273 to 274 °C	20%	Cl.N=C(NC(=N)N1CCCCC1)Nc1ccc(C(F)(F)F)cc1 [Example 27, N1-piperidine-N5-(4-trifluoromethyl)phenyl biguanide hydrochloride]	455%	–	2.4 µM	52.7%	13.2%
